Assay [1] concerns platelets. The assay can be described thus: Release of sCD154 from stimulated platelets in platelet-rich plasma (ELISA). The format is cell-based, human. As to the method:
Platelet-rich plasma (PRP) was prepared from human donors by obtaining blood through a 19-gauge butterfly into PPACK anticoagulant (8.6 ml of 2.1 mM PPACK, Calbiochem, La Jolla, Calif.: final concentration 0.3 mM). Blood was aliquoted into 15 ml polypropylene tubes and centrifuged at 900 rpm for 20 minutes (160×g). The platelet rich plasma (PRP) was carefully removed and pooled in a new tube. Platelet counts were taken and recorded. Aliquots of PRP at 37° C. were then added to 1.5 ml microcentrifuge tubes containing various amounts of eptifibatide. To initiate aggregation, 20 μM ADP 4 μg/mL collagen or 5 μM TRAP6 was added and samples were rocked on a Nutator for 30 minutes at 37° C. The tubes were put on ice and immediately centrifuged at 15,000×g for 10 minutes at 4° C.
The platelet-poor plasma (PPP) supernatant was removed to new tubes and the levels of sCD154 in these samples were measured by ELISA. There was a time-dependent increase in sCD154 release when platelets were aggregated with either ADP or TRAP6.
In other experiments, various concentrations of eptifibatide, abciximab or tirofiban were added to PRP before the addition of TRAP. In the eptifibatide experiments, the release of βTG from platelet a granules was determined from PPP samples by ELISA. Inhibition of aggregation by GP IIb-IIIa antagonists was determined in PPACK-anticoagulated PRP by light-transmission aggregometry (Chrono-Log) as described in Phillips et al. (1995) J Exp. Med 182:33-40. To assess the effect of aspirin use on the release of sCD154 from platelets, PRP was obtained from 7 donors, incubated with a single concentration of GP IIb-IIIa inhibitor, and stimulated with 20 μmol/L ADP, 5 μmol/L TRAP or 4 μg/mL collagen for 30 minutes while rocking at 37° C. Resultant PPP was measured for sCD154. The same donors then took 325 mg of aspirin for 7 days. PRP was again collected and subjected to the same conditions, and the release of sCD154 was determined. A control reading (no addition of inhibitor) was taken with the agonist 0.5 mmol/L arachidonic acid in citrated PRP to ensure that the aspirin had been taken.
A general note: ELISA stands for enzyme-linked immunosorbent assay.

For assay [2], the system named is platelets. Description: Platelet surface expression of CD154 and release of thrombospondin. It is filed as cell-based, human.
The subject of the next assay is platelets in whole blood. The assay can be described thus: Perfusion chamber: thrombus formation of whole blood on protein-coated surface under shear. It is filed as cell-based, human. How it is done: The effect of CD154 on the aggregation of platelets under conditions of high shear stress were evaluated. Recombinant CD154 (rCD154 or rCD40L) was compared to fibrinogen (Fg) in its ability to form thrombi as well as in combination with Fg. Controls also included CD154 in which the KGD eptifibatide-recognition sequence was mutated to KGE (CD154(KGE) or CD40L(KGE)). Briefly, a silicone gasket with a flow path height of 127 μm was placed between a flat perfusion chamber (Glycotech, Rockville, Md.) and a protein-coated petri dish as described (Andre, P. et al., Nature Medicine, 8:247-252 (2002)). Petri dishes were coated with rCD40L, Fibrinogen (Fg), rCD40L+Fg, mutated CD40L (CD40L(KGE)), CD40L(KGE)+Fg. In one experiment, the glycoprotein IIb/IIIa antagonist eptifibatide (2 μM) was incubated with whole blood before perfusion over the rCD40L-coated surface. When Fg was coated with either rCD40L or CD40L(KGE), each molecule was deposited at 25 μg/cm^2. Coating of the proteins was performed using the spray method in which 25 μl of a 1 mg/ml protein solution is coated onto the plastic with a retouching air brush resulting in a concentration of 25 μg/cm^2 (Houdijk, WP et al., J. Clin. Invest., 75:531-540 (1985)). Human peripheral blood was collected on PPACK (40 μmol/L final concentration) and perfused for 4 minutes over the protein-coated surface. Shear rates of 1500-1600/s, 500-600/s and 100-200/s, were generated with flow rates of ˜0.6, 0.25 and 0.075 ml/min, respectively. Measurements of thrombotic deposits were performed using the Simple PCI software image analysis program (Technical Instrument, Burlingame, Calif.).

The next assay has as its system washed platelets. Description: Fibrinogen binding to washed platelets and microparticle generation (flow cytometry). It is filed as cell-based, human. How it is done:
Venous blood was collected from normal donors into ACD buffer (85 mM Sodium Citrate, […] and 71 mM Citric acid) containing 0.05 μg/ml prostaglandin 12(PGI2). Blood was later centrifuged at 160×g for 20 minutes to collect platelet rich plasma (PRP). PRP was centrifuged at 1100×g for 10 minutes to sediment platelets. Platelets were washed twice with CGS buffer (13 mM trisodium citrate, 120 mM sodium chloride and 30 mM dextrose pH 7.0). The first wash had 0.03 μg/ml PGI2. Washed platelets were finally suspended in Tyrodes-Hepes buffer (12 mM sodium bi-carbonate, 138 mM sodium chloride, 5.5 mM glucose, 2.9 mM potassium chloride, 10 mM Hepes, 1 mM calcium chloride and 1 mM magnesium chloride, pH 7.4).
Washed platelets (1×10^7/ml) were incubated for 60 minutes at 37° C. with 2 μM soluble CD154 (sCD154) or mutant sCD154 (D117E mutation in the KGD sequence) in the presence or absence of eptifibatide or anti-CD40 antibody. All incubations had 100 nM Alexa-Fibrinogen (Molecular probes, Eugene, Oreg.). Samples were diluted 10 fold with stain buffer (BD Pharmingen, Los Angeles, Calif.) after incubation and analyzed by flow cytometry (FACSort, BD, San Jose, Calif.).
A general note: A flow cytometer gives signals particle by particle.

Assay [3] concerns platelets. The assay can be described thus: Platelet function (Accumetrics RPFA) in patients undergoing PCI. To be noted: 10 minutes post final bolus. It is filed as in vivo, human. As to the method: Patients (n=45) undergoing PCI were enrolled. The study was approved by the IRB and all patients signed informed consent. Exclusion criteria included higher risk clinical scenarios mandating, according to institutional clinical practice, the use of GP IIb/IIIa antagonists (i.e., acute ST elevation MI or non q-wave MI with CPK elevation, pain at rest with EKG changes <24 hours, visible thrombus, pain refractory to heparin), pre-procedural GP IIb/IIIa inhibitor treatment, restenotic and graft lesions, and standard conditions excluding GP IIb/IIIa inhibitor use.
All patients received aspirin and intravenous heparin (50-70U/kg) monitored by activated clotting time (ACT) during the procedure. Patients were administered either no GP IIb/IIIa inhibitor, eptifibatide (180 μg/kg double bolus followed by 2 μg/kg/min for 16 h), or abciximab (0.25 mg/kg bolus intravenously followed by 0.125 μg/kg/min for 12 h) at the discretion of the primary operator. Platelet function was monitored using PPACK-anticoagulated blood and the Accumetrics RPFA device at baseline and 10 min post-final bolus. Interventionalists were blinded to RPFA results and not permitted to modify GP IIb-IIIa inhibitor dosing. Post-PCI, patients received clopidogrel (300 mg PO) followed by 75 mg daily.

“Also recorded” adds a separate entry of the source. Bridge positions count the residues as written; N and C are the ends. Square brackets hold non-standard residues; d marks the D form. Peptide text beside a SMILES is read from it. hArg = N=C(N)NCCCC[C@H](N)C(=O)O; Mpa = O=C(O)CCS

As to `N=C(N)NCCCC[C@@H]1NC(=O)CCSSC[C@@H](C(N)=O)NC(=O)[C@@H]2CCCN2C(=O)[C@H](Cc2c[nH]c3ccccc23)NC(=O)[C@H](CC(=O)O)NC(=O)CNC1=O` [eptifibatide] ([Mpa][hArg]GDWPC-NH2; disulfide 1-7), in the assay on platelets [1] (TRAP-stimulated platelets, release without GP IIb-IIIa inhibitor set at 100%, average and SD), the “Inhibition of sCD154 Release at >90% Platelet Aggregation Inhibition, %” value is listed as 85 ± 6.3%. The “release of sCD154 from platelets activated with ADP or TRAP” value in the assay on platelets [1] (inhibitor added prior to agonist, PPACK plasma) is “blocked in a dose dependent manner; also recorded: inhibited”. Moreover, the “Potentiation of sCD154 Release, %” value with platelets [1] (maximal potentiation, TRAP-stimulated platelets, release without inhibitor set at 100%, average and SD) turned out to be 26 ± 10%. Besides, the “thrombin- or TRAP-induced surface expression of CD154” value in the assay on platelets [2] is recorded as “did not affect; also recorded: unaffected”. The “TRAP-induced release of thrombospondin” value in the assay with platelets [2] (data not shown) is “did not affect; also recorded: without affecting”. Besides, the “Binding of platelets to the rCD40L” value with platelets in whole blood (eptifibatide 2 μM incubated with whole blood) is recorded as “inhibited”. Further, in the assay on washed platelets (2 μM sCD154, eptifibatide 2.5 μM), the “effect on sCD154-induced fibrinogen binding and microparticle generation” value is listed as “inhibited”. Besides, the “Platelet inhibition (% inhibition)” value in the assay on platelets [3] was 98±3%.

B1: rsCD154: bacterially expressed recombinant human soluble CD154 (108 a.a-261 a.a.), 18-kDa protein (protein)
chain: ENSFEMQKGDQNPQIAAHVISEASSKTTSVLQWAEKGYYTMSNNLVTLENGKQLTVKRQGLYYIYAQVTFCSNREASSQAPFIASLCLKSPGRFERILLRAANTHSSAKPCGQQSIHLGGVFELQPGASVFVNVTDPSQVSHGTGFTSFGLLKL
B1: the “aggregation process (mean thrombus area) on coated surface versus Fg” value in the assay on platelets in whole blood (shear rate of 1500-1600/s, 25 μg/cm^2 coating) is listed as “significantly enhances”. Moreover, the “fibrinogen binding to platelets and generation of microparticles” value in the assay on washed platelets (2 μM protein, 60 minutes at 37° C., FIG. 10) was “induced”.

For the origin of these results see US20040072750A1, “Compounds and methods for the modulation of CD154” (priority 2001, published 2004).
